Test system: Energy system protein genes
Experiment: DNA chip mRNA expression in yeast, energy system protein genes (Table 4)
Type: cell-based, Saccharomyces cerevisiae S288C
Summary of the method: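 Whole-genome yeast DNA chip hybridization (65° C., >12 h) of Cy-labeled cDNA from S288C cells exposed 2 h at 25° C. to a sub-lethal toxicant dose in YPD; value is intensity relative to chemical-free control.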

CCCCCCCCCCCCOS(=O)(=O)[O-].[Na+] [(18), sodium lauryl sulfate]
The level of expressed mRNA in the presence of chemical substance/The level of expressed mRNA in the absence of chemical substance (yeast gene YJR009C): 1.3
The level of expressed mRNA in the presence of chemical substance/The level of expressed mRNA in the absence of chemical substance (yeast gene YJR048W): 1.2
The level of expressed mRNA in the presence of chemical substance/The level of expressed mRNA in the absence of chemical substance (yeast gene YJR121W, cells incubated two hours with the chemical substance): 1.4
The level of expressed mRNA in the presence of chemical substance/The level of expressed mRNA in the absence of chemical substance (yeast gene YJR155W): 1.4
The level of expressed mRNA in the presence of chemical substance/The level of expressed mRNA in the absence of chemical substance (yeast gene YKL016C, cells incubated two hours with the chemical substance): 1.7
The level of expressed mRNA in the presence of chemical substance/The level of expressed mRNA in the absence of chemical substance (yeast gene YKL060C, cells incubated two hours with the chemical substance): 1.7
The level of expressed mRNA in the presence of chemical substance/The level of expressed mRNA in the absence of chemical substance (yeast gene YKL141W, cells incubated two hours with the chemical substance): 1.8
The level of expressed mRNA in the presence of chemical substance/The level of expressed mRNA in the absence of chemical substance (yeast gene YKL148C, cells incubated two hours with the chemical substance): 1.0
The level of expressed mRNA in the presence of chemical substance/The level of expressed mRNA in the absence of chemical substance (yeast gene YKR009C, cells incubated two hours with the chemical substance): 2.5
The level of expressed mRNA in the presence of chemical substance/The level of expressed mRNA in the absence of chemical substance (yeast gene YKR058W, cells incubated two hours with the chemical substance, 25° C., YPD medium): 1.6
The level of expressed mRNA in the presence of chemical substance/The level of expressed mRNA in the absence of chemical substance (yeast gene YKR097W): 1.5
The level of expressed mRNA in the presence of chemical substance/The level of expressed mRNA in the absence of chemical substance (yeast gene YLL041C, cells incubated two hours with the chemical substance): 1.7
The level of expressed mRNA in the presence of chemical substance/The level of expressed mRNA in the absence of chemical substance (yeast gene YLR038C, cells incubated two hours with the chemical substance): 2.1
The level of expressed mRNA in the presence of chemical substance/The level of expressed mRNA in the absence of chemical substance (yeast gene YLR044C, cells incubated two hours with the chemical substance): 0.9
The level of expressed mRNA in the presence of chemical substance/The level of expressed mRNA in the absence of chemical substance (yeast gene YLR134W, cells incubated two hours with the chemical substance): 0.8
The level of expressed mRNA in the presence of chemical substance/The level of expressed mRNA in the absence of chemical substance (yeast gene YLR258W, cells incubated two hours with the chemical substance): 2.0
The level of expressed mRNA in the presence of chemical substance/The level of expressed mRNA in the absence of chemical substance (yeast gene YLR284C, cells incubated two hours with the chemical substance): 8.1
The level of expressed mRNA in the presence of chemical substance/The level of expressed mRNA in the absence of chemical substance (yeast gene YLR295C, cells incubated two hours with the chemical substance, 25° C., YPD medium): 1.5
The level of expressed mRNA in the presence of chemical substance/The level of expressed mRNA in the absence of chemical substance (yeast gene YLR304C, cells incubated two hours with the chemical substance): 0.7
The level of expressed mRNA in the presence of chemical substance/The level of expressed mRNA in the absence of chemical substance (yeast gene YLR345W): 1.4
The level of expressed mRNA in the presence of chemical substance/The level of expressed mRNA in the absence of chemical substance (yeast gene YLR354C, cells incubated two hours with the chemical substance): 1.5
The level of expressed mRNA in the presence of chemical substance/The level of expressed mRNA in the absence of chemical substance (yeast gene YLR377C, cells incubated two hours with the chemical substance): 1.4
The level of expressed mRNA in the presence of chemical substance/The level of expressed mRNA in the absence of chemical substance (yeast gene YLR395C, cells incubated two hours with the chemical substance): 2.3
The level of expressed mRNA in the presence of chemical substance/The level of expressed mRNA in the absence of chemical substance (yeast gene YML087C): 0.8
The level of expressed mRNA in the presence of chemical substance/The level of expressed mRNA in the absence of chemical substance (yeast gene YML120C, cells incubated two hours with the chemical substance): 1.6
The level of expressed mRNA in the presence of chemical substance/The level of expressed mRNA in the absence of chemical substance (yeast gene YML129C, cells incubated two hours with the chemical substance): 1.3
The level of expressed mRNA in the presence of chemical substance/The level of expressed mRNA in the absence of chemical substance (yeast gene YMR073C, cells incubated two hours with the chemical substance): 1.2
The level of expressed mRNA in the presence of chemical substance/The level of expressed mRNA in the absence of chemical substance (yeast gene YMR118C): 1.0
The level of expressed mRNA in the presence of chemical substance/The level of expressed mRNA in the absence of chemical substance (yeast gene YMR205C, cells incubated two hours with the chemical substance): 0.5
The level of expressed mRNA in the presence of chemical substance/The level of expressed mRNA in the absence of chemical substance (yeast gene YMR261C, cells incubated two hours with the chemical substance): 1.1
The level of expressed mRNA in the presence of chemical substance/The level of expressed mRNA in the absence of chemical substance (yeast gene YMR267W, cells incubated two hours with the chemical substance, 25° C., YPD medium): 1.3
The level of expressed mRNA in the presence of chemical substance/The level of expressed mRNA in the absence of chemical substance (yeast gene YMR323W, cells incubated two hours with the chemical substance): 0.6
The level of expressed mRNA in the presence of chemical substance/The level of expressed mRNA in the absence of chemical substance (yeast gene YNL071W): 1.2
The level of expressed mRNA in the presence of chemical substance/The level of expressed mRNA in the absence of chemical substance (yeast gene YNL202W, cells incubated two hours with the chemical substance): 3.3
The level of expressed mRNA in the presence of chemical substance/The level of expressed mRNA in the absence of chemical substance (yeast gene YNL241C): 1.0
The level of expressed mRNA in the presence of chemical substance/The level of expressed mRNA in the absence of chemical substance (yeast gene YNL331C): 1.3
The level of expressed mRNA in the presence of chemical substance/The level of expressed mRNA in the absence of chemical substance (yeast gene YOL086C, cells incubated two hours with the chemical substance): 1.3
The level of expressed mRNA in the presence of chemical substance/The level of expressed mRNA in the absence of chemical substance (yeast gene YOL165C): 1.0
The level of expressed mRNA in the presence of chemical substance/The level of expressed mRNA in the absence of chemical substance (yeast gene YOR142W, cells incubated two hours with the chemical substance): 1.0
The level of expressed mRNA in the presence of chemical substance/The level of expressed mRNA in the absence of chemical substance (yeast gene YOR178C, cells incubated two hours with the chemical substance): 1.5
The level of expressed mRNA in the presence of chemical substance/The level of expressed mRNA in the absence of chemical substance (yeast gene YOR388C, cells incubated two hours with the chemical substance): 0.9
The level of expressed mRNA in the presence of chemical substance/The level of expressed mRNA in the absence of chemical substance (yeast gene YPL031C, cells incubated two hours with the chemical substance): 1.2
The level of expressed mRNA in the presence of chemical substance/The level of expressed mRNA in the absence of chemical substance (yeast gene YPL061W, cells incubated two hours with the chemical substance): 2.6
The level of expressed mRNA in the presence of chemical substance/The level of expressed mRNA in the absence of chemical substance (yeast gene YPL088W): 8.3
The level of expressed mRNA in the presence of chemical substance/The level of expressed mRNA in the absence of chemical substance (yeast gene YPL171C): 1.5
The level of expressed mRNA in the presence of chemical substance/The level of expressed mRNA in the absence of chemical substance (yeast gene YPL240C): 1.0
The level of expressed mRNA in the presence of chemical substance/The level of expressed mRNA in the absence of chemical substance (yeast gene YPL262W, cells incubated two hours with the chemical substance): 1.2
The level of expressed mRNA in the presence of chemical substance/The level of expressed mRNA in the absence of chemical substance (yeast gene YPL275W, cells incubated two hours with the chemical substance): 1.0
The level of expressed mRNA in the presence of chemical substance/The level of expressed mRNA in the absence of chemical substance (yeast gene YPL276W, cells incubated two hours with the chemical substance): 0.8
The level of expressed mRNA in the presence of chemical substance/The level of expressed mRNA in the absence of chemical substance (yeast gene YPR048W, cells incubated two hours with the chemical substance): 0.8
The level of expressed mRNA in the presence of chemical substance/The level of expressed mRNA in the absence of chemical substance (yeast gene YPR184W, cells incubated two hours with the chemical substance): 1.7
